Where “and” joins values, the source holds several entries; their conditions need not be identical. Equal entries are not always repeated. ± gives the uncertainty stated by the source.
Experiment: xn = mol fraction of the nth substance listed

O=C(O)c1cccc([N+](=O)[O-])c1 + CO
viscosity [mPa·s], 101 kPa
Settings	x1 = 0.0362	x1 = 0.0466	x1 = 0.0506	x1 = 0.0604	x1 = 0.09126	x1 = 0.1046
308.15 K	0.8055 ± 0.0082	0.9203 ± 0.0092	0.9556 ± 0.0096	–	1.889 ± 0.05	2.773 ± 0.074
313.15 K	–	–	–	–	1.727 ± 0.046	2.425 ± 0.064
318.15 K	–	–	–	–	1.573 ± 0.042	2.262 ± 0.06
323.15 K	0.646 ± 0.0068	0.7331 ± 0.0077	0.7603 ± 0.0079	0.8441 ± 0.0085	1.421 ± 0.038	2.026 ± 0.054

CCCCCCCCCCCCCCCCCCCCCCCC + CCCCCCC
Settings	viscosity [mPa·s]
313.2 K, 101.3 kPa, x1 = 0.198	0.9672 ± 0.011

CC1CCCCC1 + CCCCCO
303.15 K, 101.33 kPa
Settings	viscosity [mPa·s]
x1 = 0.0947	2.283 ± 0.021
x1 = 0.2614	1.737 ± 0.016
x1 = 0.42	1.289 ± 0.012
x1 = 0.5783	0.968 ± 0.009
x1 = 0.7422	0.777 ± 0.007
x1 = 0.9027	0.663 ± 0.006
x2 = 0.1011	0.7025 ± 0.0092
x2 = 0.2073	0.7951 ± 0.01
x2 = 0.3017	0.8911 ± 0.011
x2 = 0.4214	1.039 ± 0.013
x2 = 0.4998	1.16 ± 0.014
x2 = 0.5988	1.325 ± 0.016
x2 = 0.7007	1.535 ± 0.018
x2 = 0.8084	1.852 ± 0.022
x2 = 0.9144	2.305 ± 0.027

NCC(=O)NCC(=O)O + O
viscosity
Settings	293.15 K	298.15 K	303.15 K	308.15 K	313.15 K	318.15 K	323.15 K
100 kPa, x1 = 0.000887	–	0.9004 ± 0.019 mPa·s	–	0.7285 ± 0.015 mPa·s	0.6622 ± 0.014 mPa·s	0.6045 ± 0.013 mPa·s	–
100 kPa, x1 = 0.00175	–	0.907 ± 0.019 mPa·s	0.8135 ± 0.017 mPa·s	0.7349 ± 0.015 mPa·s	0.6683 ± 0.014 mPa·s	0.6105 ± 0.013 mPa·s	–
100 kPa, x1 = 0.002593	–	0.9129 ± 0.019 mPa·s	0.8194 ± 0.017 mPa·s	0.7408 ± 0.015 mPa·s	0.6742 ± 0.014 mPa·s	0.6162 ± 0.013 mPa·s	–
100 kPa, x1 = 0.003411	–	0.9185 ± 0.019 mPa·s	0.8251 ± 0.017 mPa·s	0.7465 ± 0.016 mPa·s	0.6797 ± 0.014 mPa·s	0.6216 ± 0.013 mPa·s	–
100 kPa, x1 = 0.004207	–	0.9239 ± 0.019 mPa·s	0.8307 ± 0.017 mPa·s	0.752 ± 0.016 mPa·s	0.685 ± 0.014 mPa·s	0.6269 ± 0.013 mPa·s	–
100 kPa, x1 = 0.004983	–	0.9292 ± 0.019 mPa·s	0.836 ± 0.017 mPa·s	0.7573 ± 0.016 mPa·s	0.6904 ± 0.014 mPa·s	0.6322 ± 0.013 mPa·s	–
100 kPa, x1 = 0.005739	–	0.9343 ± 0.019 mPa·s	0.8413 ± 0.017 mPa·s	0.7627 ± 0.016 mPa·s	0.6957 ± 0.015 mPa·s	0.6374 ± 0.013 mPa·s	–
100 kPa, x1 = 0.006476	–	0.9394 ± 0.02 mPa·s	0.8465 ± 0.018 mPa·s	0.7679 ± 0.016 mPa·s	0.7006 ± 0.015 mPa·s	0.6425 ± 0.013 mPa·s	–
101.3 kPa, x1 = 0.002	1.04 ± 0.06 mPa·s and 1.04 ± 0.04 mPa·s	–	0.82 ± 0.05 mPa·s and 0.82 ± 0.03 mPa·s	–	0.67 ± 0.04 mPa·s and 0.67 ± 0.03 mPa·s	–	0.56 ± 0.03 mPa·s and 0.56 ± 0.02 mPa·s
101.3 kPa, x1 = 0.004	1.08 ± 0.07 mPa·s and 1.08 ± 0.04 mPa·s	–	0.85 ± 0.05 mPa·s and 0.85 ± 0.03 mPa·s	–	0.69 ± 0.04 mPa·s and 0.69 ± 0.03 mPa·s	–	0.59 ± 0.04 mPa·s and 0.59 ± 0.02 mPa·s
101.3 kPa, x1 = 0.005	1.1 ± 0.07 mPa·s and 1.1 ± 0.04 mPa·s	–	0.87 ± 0.05 mPa·s and 0.87 ± 0.04 mPa·s	–	0.71 ± 0.04 mPa·s and 0.71 ± 0.03 mPa·s	–	0.6 ± 0.04 mPa·s and 0.6 ± 0.02 mPa·s
101.3 kPa, x1 = 0.007	1.14 ± 0.07 mPa·s and 1.14 ± 0.05 mPa·s	–	0.9 ± 0.05 mPa·s and 0.9 ± 0.04 mPa·s	–	0.74 ± 0.05 mPa·s and 0.74 ± 0.03 mPa·s	–	0.62 ± 0.04 mPa·s and 0.62 ± 0.03 mPa·s

CCn1cc[n+](C)c1.N#C[S-] + CCOS(=O)(=O)[O-].CC[n+]1ccn(C)c1
100 kPa
Settings	viscosity [mPa·s]
298.15 K, x2 = 0.0495	24.95 ± 1.2
323.15 K, x2 = 0.571	25.65 ± 1.1

CCCCCCCCCCCl + CCCCCCCCCC
viscosity [mPa·s], 101 kPa
Settings	x2 = 0.1	x2 = 0.2004	x2 = 0.2954	x2 = 0.3988	x2 = 0.4972	x2 = 0.593	x2 = 0.6968	x2 = 0.7947	x2 = 0.8906
293.15 K	1.796 ± 0.016	1.66 ± 0.015	1.539 ± 0.014	1.419 ± 0.013	1.315 ± 0.012	1.225 ± 0.011	1.136 ± 0.011	1.063 ± 0.01	0.997 ± 0.009
298.15 K	1.649 ± 0.015	1.523 ± 0.014	1.415 ± 0.013	1.307 ± 0.012	1.214 ± 0.011	1.133 ± 0.011	1.054 ± 0.01	0.99 ± 0.009	0.931 ± 0.009
303.15 K	1.5 ± 0.014	1.388 ± 0.013	1.291 ± 0.012	1.196 ± 0.011	1.114 ± 0.01	1.042 ± 0.01	0.973 ± 0.009	0.917 ± 0.009	0.867 ± 0.008
308.15 K	1.353 ± 0.012	1.25 ± 0.012	1.167 ± 0.011	1.084 ± 0.01	1.013 ± 0.01	0.951 ± 0.009	0.891 ± 0.008	0.844 ± 0.008	0.802 ± 0.008

Cc1ccccc1[N+](=O)[O-] + Cc1ccc(C)cc1
308.15 K, 101.33 kPa
Settings	viscosity [mPa·s]
x2 = 0.1044	1.342 ± 0.008
x2 = 0.2016	1.153 ± 0.007
x2 = 0.2968	1.034 ± 0.007
x2 = 0.4024	0.942 ± 0.006
x2 = 0.4938	0.879 ± 0.006
x2 = 0.6032	0.81 ± 0.005
x2 = 0.6951	0.754 ± 0.005
x2 = 0.8009	0.681 ± 0.005
x2 = 0.8955	0.624 ± 0.004

C1=CCCCC1 + ClC(Cl)(Cl)Cl
303.15 K, 101 kPa
Settings	viscosity [mPa·s]
x1 = 0.1014	0.875 ± 0.011
x1 = 0.2018	0.839 ± 0.011
x1 = 0.3213	0.8 ± 0.01
x1 = 0.4018	0.775 ± 0.01
x1 = 0.5046	0.74 ± 0.01
x1 = 0.5562	0.722 ± 0.009
x1 = 0.6526	0.688 ± 0.009
x1 = 0.7514	0.653 ± 0.008
x1 = 0.9049	0.603 ± 0.008

CCOC(=O)c1ccccc1 + CC#N
viscosity [mPa·s], 101.33 kPa
Settings	x1 = 0.129	x1 = 0.25	x1 = 0.362	x1 = 0.469	x1 = 0.571	x1 = 0.657	x1 = 0.756	x1 = 0.832	x1 = 0.914
293.15 K	0.465 ± 0.006	0.496 ± 0.007	0.554 ± 0.008	0.627 ± 0.01	0.714 ± 0.012	0.843 ± 0.016	1.056 ± 0.022	1.362 ± 0.03	1.764 ± 0.042
303.15 K	0.416 ± 0.005	0.444 ± 0.006	0.495 ± 0.007	0.551 ± 0.009	0.621 ± 0.011	0.721 ± 0.014	0.897 ± 0.019	1.12 ± 0.025	1.418 ± 0.034
313.15 K	0.378 ± 0.005	0.403 ± 0.006	0.443 ± 0.007	0.491 ± 0.008	0.549 ± 0.01	0.631 ± 0.012	0.764 ± 0.016	0.939 ± 0.021	1.161 ± 0.028
323.15 K	0.34 ± 0.005	0.362 ± 0.006	0.397 ± 0.006	0.436 ± 0.008	0.485 ± 0.009	0.55 ± 0.011	0.659 ± 0.014	0.799 ± 0.018	0.972 ± 0.023

C=C(C)C(=O)OCC + C1CCCCC1
viscosity [mPa·s], 101 kPa
Settings	298.15 K	308.15 K
x1 = 0.0581	0.837 ± 0.084	0.711 ± 0.072
x1 = 0.1534	0.768 ± 0.077	0.651 ± 0.065
x1 = 0.2549	0.711 ± 0.071	0.601 ± 0.06
x1 = 0.3548	0.668 ± 0.067	0.564 ± 0.057
x1 = 0.3935	0.655 ± 0.066	0.552 ± 0.055
x1 = 0.5465	0.619 ± 0.062	0.52 ± 0.052
x1 = 0.5568	0.618 ± 0.062	0.518 ± 0.052
x1 = 0.6264	0.61 ± 0.061	0.511 ± 0.051
x1 = 0.7559	0.606 ± 0.061	0.506 ± 0.051
x1 = 0.8548	0.614 ± 0.062	0.51 ± 0.051
x1 = 0.9399	0.628 ± 0.063	0.52 ± 0.052

Cc1cccc([N+](=O)[O-])c1 + Cc1ccccc1C
308.15 K, 101.33 kPa
Settings	viscosity [mPa·s]
x2 = 0.1044	1.384 ± 0.009
x2 = 0.2068	1.211 ± 0.008
x2 = 0.2995	1.102 ± 0.007
x2 = 0.4028	1.01 ± 0.007
x2 = 0.5015	0.944 ± 0.006
x2 = 0.6123	0.867 ± 0.006
x2 = 0.7055	0.81 ± 0.005
x2 = 0.8268	0.742 ± 0.005
x2 = 0.9132	0.698 ± 0.005

CC(=O)[O-].CCCC[NH2+]CCO + CCCCn1cc[n+](C)c1.O=S(=O)([N-]S(=O)(=O)C(F)(F)F)C(F)(F)F
Settings	viscosity [mPa·s]
308.15 K, 101 kPa, x1 = 0.901	343.5 ± 11

— the CheMixHub viscosity set
